Measurements reported in ChEMBL document CHEMBL1158247, “Isolation of Isodrimenediol, a Possible Intermediate of Drimane Biosynthesis from Polyporus arcularius” (1996).
≈ marks a conversion by molar mass, not a printed value.

Legend:
Staphylococcus aureus = assay: Antimicrobial activity against Staphylococcus aureus SG511 by agar diffusion method; type: functional
[1] = tested on: Sporobolomyces salmonicolor; assay: Antimicrobial activity against Sporobolomyces salmonicolor 549 by agar diffusion method; type: functional

For `C=C1CC[C@H]2C(C)(C)[C@@H](O)CC[C@]2(C)[C@H]1CO` [ISODRIMENEDIOL], the MIC (Staphylococcus aureus) was 10 µg/mL (≈ 42 µM) and the MIC [1] was 5 µg/mL (≈ 21 µM).
